Experimental data published in patent US20240368135A1 (VERTEX PHARMACEUTICALS INCORPORATED, priority 2021, published 2024).

Target: human NaV 1.8 (Homo sapiens, UniProt Q9Y5Y9)
Experiment: E-VIPR assay detecting and measuring NaV inhibition properties
Format: cell-based
Settings: HEK cells expressing truncated human NaV 1.8; no human serum; read-out: IC50 in the E-VIPR Assay
How it was run: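 Membrane potential was followed by coumarin/oxonol FRET during electrical field stimulation of matrigel-seeded HEK cells carrying truncated human NaV1.8 plus KIR2.1. Dosing used 11 points, 3-fold steps, top 300 nM final, 0.625% DMSO, with or without 25% human serum.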

human NaV 1.8, sequence (Q9Y5Y9 126-399 limits assumed): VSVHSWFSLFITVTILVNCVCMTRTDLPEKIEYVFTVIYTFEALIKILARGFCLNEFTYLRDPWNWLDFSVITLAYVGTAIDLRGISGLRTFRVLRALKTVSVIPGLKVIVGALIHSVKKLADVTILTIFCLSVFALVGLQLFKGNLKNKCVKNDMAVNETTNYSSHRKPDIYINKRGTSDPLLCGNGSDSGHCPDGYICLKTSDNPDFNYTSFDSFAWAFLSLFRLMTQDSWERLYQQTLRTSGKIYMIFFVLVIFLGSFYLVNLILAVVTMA
human NaV 1.8, sequence (Q9Y5Y9 660-890 limits assumed): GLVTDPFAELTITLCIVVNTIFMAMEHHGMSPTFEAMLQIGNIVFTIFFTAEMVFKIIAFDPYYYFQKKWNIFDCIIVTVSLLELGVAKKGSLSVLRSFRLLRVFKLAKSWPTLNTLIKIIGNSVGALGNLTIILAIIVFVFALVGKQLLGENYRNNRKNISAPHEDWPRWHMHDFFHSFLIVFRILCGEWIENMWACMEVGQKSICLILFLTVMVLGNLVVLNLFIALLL
human NaV 1.8, sequence (Q9Y5Y9 1148-1722 limits assumed): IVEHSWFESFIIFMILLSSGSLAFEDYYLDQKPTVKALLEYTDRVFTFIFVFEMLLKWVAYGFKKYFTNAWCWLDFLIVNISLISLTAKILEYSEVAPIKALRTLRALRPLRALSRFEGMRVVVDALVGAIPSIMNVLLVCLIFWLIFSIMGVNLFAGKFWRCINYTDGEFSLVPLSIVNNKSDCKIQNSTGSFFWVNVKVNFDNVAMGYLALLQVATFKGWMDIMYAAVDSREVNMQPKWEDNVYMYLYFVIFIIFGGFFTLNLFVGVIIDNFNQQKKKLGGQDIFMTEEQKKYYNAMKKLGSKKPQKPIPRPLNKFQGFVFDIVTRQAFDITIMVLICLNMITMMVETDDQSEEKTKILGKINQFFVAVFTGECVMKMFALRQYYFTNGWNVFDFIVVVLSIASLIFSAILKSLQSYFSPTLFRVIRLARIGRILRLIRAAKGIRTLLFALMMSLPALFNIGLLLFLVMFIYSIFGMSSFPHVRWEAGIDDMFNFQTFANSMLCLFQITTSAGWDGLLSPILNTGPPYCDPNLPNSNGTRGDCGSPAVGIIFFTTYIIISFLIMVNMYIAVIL

IC50	SMILES
≥ 1000 nM	Cc1ncc(NC(=O)[C@@H]2O[C@@](C)(C(F)(F)F)[C@@H](C)[C@H]2c2ccc(F)c(F)c2OCCO)c(C)n1 [Compound 543, (2R,3S,4S,5R)-3-(3,4-difluoro-2-(2-hydroxyethoxy)phenyl)-N-(2,4-dimethylpyrimidin-5-yl)-4,5-dimethyl-5-(trifluoromethyl)tetrahydrofuran-2-carboxamide]
10 to 100 nM	COc1cc(NC(=O)[C@@H]2O[C@@](C)(C(F)(F)F)[C@@H](C)[C@H]2c2ccc(F)c(F)c2OCCO)ccn1 [Compound 544, (2R,3S,4S,5R)-3-(3,4-difluoro-2-(2-hydroxyethoxy)phenyl)-N-(2-methoxypyridin-4-yl)-4,5-dimethyl-5-(trifluoromethyl)tetrahydrofuran-2-carboxamide]
10 to 100 nM	Cc1conc1NC(=O)[C@@H]1O[C@@](C)(C(F)(F)F)[C@@H](C)[C@H]1c1ccc(F)c(F)c1OCCO [Compound 545, (2R,3S,4S,5R)-3-(3,4-difluoro-2-(2-hydroxyethoxy)phenyl)-4,5-dimethyl-N-(4-methylisoxazol-3-yl)-5-(trifluoromethyl)tetrahydrofuran-2-carboxamide]
≥ 1000 nM	C[C@H]1[C@@H](c2ccc(F)c(F)c2OCCO)[C@H](C(=O)Nc2cc(C3CC3)n(C)n2)O[C@@]1(C)C(F)(F)F [Compound 546, (2R,3S,4S,5R)-N-(5-cyclopropyl-1-methyl-1H-pyrazol-3-yl)-3-(3,4-difluoro-2-(2-hydroxyethoxy)phenyl)-4,5-dimethyl-5-(trifluoromethyl)tetrahydrofuran-2-carboxamide]
100 to 1000 nM	C[C@H]1[C@@H](c2ccc(F)c(F)c2OCCO)[C@H](C(=O)Nc2ccnn2C)O[C@@]1(C)C(F)(F)F [Compound 547, (2R,3S,4S,5R)-3-(3,4-difluoro-2-(2-hydroxyethoxy)phenyl)-4,5-dimethyl-N-(1-methyl-1H-pyrazol-5-yl)-5-(trifluoromethyl)tetrahydrofuran-2-carboxamide]
10 to 100 nM	C[C@H]1[C@@H](c2ccc(F)c(F)c2OCCO)[C@H](C(=O)Nc2ccc3nncn3c2)O[C@@]1(C)C(F)(F)F [Compound 548]
100 to 1000 nM	C[C@H]1[C@@H](c2ccc(F)c(F)c2OCCO)[C@H](C(=O)Nc2cnn(CC#N)c2)O[C@@]1(C)C(F)(F)F [Compound 549, (2R,3S,4S,5R)-N-(1-(cyanomethyl)-1H-pyrazol-4-yl)-3-(3,4-difluoro-2-(2-hydroxyethoxy)phenyl)-4,5-dimethyl-5-(trifluoromethyl)tetrahydrofuran-2-carboxamide]
100 to 1000 nM	COc1ncc(NC(=O)[C@@H]2O[C@@](C)(C(F)(F)F)[C@@H](C)[C@H]2c2ccc(F)c(F)c2OCCO)cn1 [Compound 550, (2R,3S,4S,5R)-3-(3,4-difluoro-2-(2-hydroxyethoxy)phenyl)-N-(2-methoxypyrimidin-5-yl)-4,5-dimethyl-5-(trifluoromethyl)tetrahydrofuran-2-carboxamide]
≥ 1000 nM	Cc1ncc(C2CCOC2)cc1NC(=O)[C@@H]1O[C@@](C)(C(F)(F)F)[C@@H](C)[C@H]1c1ccc(F)c(F)c1OCCO (stereo partly drawn) [Compound 551, (2R,3S,4S,5R)-3-(3,4-difluoro-2-(2-hydroxyethoxy)phenyl)-4,5-dimethyl-N-(2-methyl-5-(tetrahydrofuran-3-yl)pyridin-3-yl)-5-(trifluoromethyl)tetrahydrofuran-2-carboxamide]
≥ 1000 nM	COCCn1ccc(NC(=O)[C@@H]2O[C@@](C)(C(F)(F)F)[C@@H](C)[C@H]2c2ccc(F)c(F)c2OCCO)n1 [Compound 552, (2R,3S,4S,5R)-3-(3,4-difluoro-2-(2-hydroxyethoxy)phenyl)-N-(1-(2-methoxyethyl)-1H-pyrazol-3-yl)-4,5-dimethyl-5-(trifluoromethyl)tetrahydrofuran-2-carboxamide]
≥ 1000 nM	COCn1cnc(NC(=O)[C@@H]2O[C@@](C)(C(F)(F)F)[C@@H](C)[C@H]2c2ccc(F)c(F)c2OCCO)n1 [Compound 553, (2R,3S,4S,5R)-3-(3,4-difluoro-2-(2-hydroxyethoxy)phenyl)-N-(1-(methoxymethyl)-1H-1,2,4-triazol-3-yl)-4,5-dimethyl-5-(trifluoromethyl)tetrahydrofuran-2-carboxamide]
